Assay results as given in patent US11485740B2, “Inhibitors of TRPC6” (Boehringer Ingelheim International GmbH, priority 2018, dated 2022).

biological target: T1, human TRPC6 (Homo sapiens, UniProt Q9Y210); experiment: High throughput screening assay: Fluo4/AM calcium fluorescence in HEK293/TREx cells expressing human TRPC6, agonist GSK1702934A (single concentration 10 μM and IC50 curves); type: cell-based; conditions: antagonist effect against human TRPC6, 7 concentrations 20 μM to 0.027 μM, triplicate
T1 construct: expressed in transfected cells
T1 sequence (Q9Y210 1-931): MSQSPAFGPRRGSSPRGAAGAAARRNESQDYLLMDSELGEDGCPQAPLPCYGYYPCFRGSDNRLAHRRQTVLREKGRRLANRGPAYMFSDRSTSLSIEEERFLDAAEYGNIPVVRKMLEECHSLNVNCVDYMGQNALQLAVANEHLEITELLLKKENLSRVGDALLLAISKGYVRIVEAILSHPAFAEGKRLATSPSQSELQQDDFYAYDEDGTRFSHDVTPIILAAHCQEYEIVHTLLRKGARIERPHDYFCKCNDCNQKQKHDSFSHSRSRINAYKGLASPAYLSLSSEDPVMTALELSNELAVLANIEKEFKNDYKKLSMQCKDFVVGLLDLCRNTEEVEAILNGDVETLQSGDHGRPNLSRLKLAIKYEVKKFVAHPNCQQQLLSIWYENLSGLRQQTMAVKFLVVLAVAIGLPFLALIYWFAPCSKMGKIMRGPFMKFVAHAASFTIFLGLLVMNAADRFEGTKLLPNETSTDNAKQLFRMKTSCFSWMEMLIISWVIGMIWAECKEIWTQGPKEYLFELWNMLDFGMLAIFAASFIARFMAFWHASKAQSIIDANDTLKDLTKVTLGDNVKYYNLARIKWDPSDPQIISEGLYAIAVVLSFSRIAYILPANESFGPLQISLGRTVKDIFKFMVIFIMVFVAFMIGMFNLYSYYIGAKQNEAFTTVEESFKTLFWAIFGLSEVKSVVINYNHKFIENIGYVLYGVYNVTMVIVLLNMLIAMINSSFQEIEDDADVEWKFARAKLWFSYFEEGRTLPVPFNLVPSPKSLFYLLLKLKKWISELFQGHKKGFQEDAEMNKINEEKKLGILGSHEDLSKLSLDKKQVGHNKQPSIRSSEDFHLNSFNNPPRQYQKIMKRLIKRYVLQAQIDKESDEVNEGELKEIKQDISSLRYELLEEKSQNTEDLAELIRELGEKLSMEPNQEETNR
From the text: High Throughput Screening Assay
This screening assay measures human TRPC6 (transient receptor potential cation channel, subfamily C, member 6) ion channel activation via addition either of the commercially available DAG ligand analogue OAG (1-oleoyl-2-acetyl-sn-glycerol) or of the TRPC6 agonist 1-[1-(4,5,6,7,8-pentahydrocyclohepta[2,1-d]thiophen-2-ylcarbonyl)-4-piperidyl]-3-hydrobenzimidazol-2-one (GSK1702934A). The assay utilizes a fluorescent calcium sensor 4-(6-Acetoxymethoxy-2,7-difluoro-3-oxo-9-xanthenyl)-4′-methyl-2,2′-(ethylenedioxy)dianiline-N,N,N′,N′-tetraacetic acid tetrakis(acetoxymethyl) ester (Fluo4/AM) dye from Molecular Devices. Changes (increases) in intracellular calcium concentration as measured by the fluorescent signal increase provide a measurement of channel activity.
The commercially available HEK293/TREx line (Invitrogen) was stably transfected with a human TRPC6 construct and screened by conventional calcium imaging to find clones with human TRPC6 expression following stimulation with 1 μg/ml tetracycline. These cells were maintained in the growth medium recommended by the manufacturer supplemented with 100 μg/ml hygromycin to promote retention of the human TRPC6 construct. After growing to near confluency, cells were plated at a density of ^˜35,000 cells/well in 384 well CellBind plates (Corning) in the presence of 1 μg/ml tetracycline, and allowed to grow for 20-30 hrs. A nearly confluent monolayer resulted. Growth media was removed from the wells and cells were then loaded with […] Fluo4/AM diluted in Ringer's Solution (6.5 g NaCl, 0.42 g KCl, 0.25 g CaCl2) and 0.2 g of sodium bicarbonate; pH 7.4) supplemented with 1% Pluronic F-127 to a final concentration of 0.5 μM and incubated for 60 min, at room temperature. Dye solution was then removed from the cells by inverting plates with a sharp flick, and replaced with 25 μl Ringer's. Following ^˜0.5 hour for recovery from loading, cells were assayed using the Hamamatsu FDSS 6000 system, which permitted illumination at 485 nm. Frames were acquired at a rate of 0.2 Hz. During the assay, the plates were continuously vortexed, with pipette mixing of wells following addition of each reagent. For the screening assay, 26 μl of a diluted compound stock (at 50 μM) was added to each well for 2 minutes following the collection of a short (4 frame) baseline. 13 μl of agonist solution consisting of 125 nM GSK1702934A diluted in high-Ca2+Ringer solution (containing 90 mM Ca2+) was then added to each well, achieving a final concentration of 20 mM Ca2+ and 10 μM test compound. Data was collected for ^˜3 minutes following addition of high Ca2+Ringer. The fluorescent intensity observed at a particular timepoint for each well was divided by the initial fluorescent intensity for that well and the overall response was determined by averaging the resulting fluorescent ratio of the last 4 frames acquired during the experiment excepting the final frame. Negative and Positive controls were included on each plate. Negative controls wells consisted of HEK293/TREx TRPC6 cells exposed to assay buffer and agonist solution, but no test compound. Positive control consisted of wells consisted of HEK293/TREx TRPC6 cells exposed to 25 μM 3-[(2-chlorophenoxy)methyl]phenyl piperidyl ketone (Chembridge) diluted in Ringer's solution and agonist solution. These controls defined zero percent and 100 percent block respectively, and intensity of each well was normalized to these values.
Compounds were tested in triplicate at all concentrations. Standard software was used to fit IC50 curves.

Structure (SMILES)	IC50 [nM]
COc1cc(C(=O)N2CCC(c3ccc(N)nn3)CC2)ccc1-c1ccc(C(F)(F)F)nc1 [Compound 59, [4-(6-Amino-pyridazin-3-yl)-piperidin-1-yl]-[3-methoxy-4-(6-trifluoromethyl-pyridin-3-yl)-phenyl]-methanone]	640
Nc1ccc(C2CCN(C(=O)c3ccc(-c4cccc(Cl)c4)cc3)CC2)nn1 [Compound 6, [4-(6-Amino-pyridazin-3-yl)-piperidin-1-yl]-(3′-chloro-biphenyl-4-yl)-methanone]	4400
COc1cc(C(=O)N2C[C@@H]3C[C@H]2CN3c2ccc(N)nn2)ncc1-c1ccc(C(F)(F)F)cc1 [Compound 116, [(1S,4S)-5-(6-Amino-pyridazin-3-yl)-2,5-diaza-bicyclo[2.2.1]hept-2-yl]-[4-methoxy-5-(4-trifluoromethyl-phenyl)-pyridin-2-yl]-methanone]	190
COc1cc(C(=O)N2CCC(c3ccc(N)nn3)CC2)ncc1-c1ccc(OCC2CC2)cc1 [Compound 17, [4-(6-Amino-pyridazin-3-yl)-piperidin-1-yl]-[5-(4-cyclopropylmethoxy-phenyl)-4-methoxy-pyridin-2-yl]-methanone]	75
COc1cc(C(=O)N2CCN(c3ccc(N)nc3)C[C@@H]2CO)ncc1-c1ccc(F)cc1 [Compound 90, [(R)-4-(6-Amino-pyridin-3-yl)-2-hydroxymethyl-piperazin-1-yl]-[5-(4-fluoro-phenyl)-4-methoxy-pyridin-2-yl]-methanone]	370
COc1cc(C(=O)N2CCN(c3ccc(N)nc3)CC2)ncc1-c1ccccc1 [Compound 68, 5-[4-(4-Methoxy-5-phenylpyridine-2-carbonyl)piperazin-1-yl]pyridin-2-amine]	39
COc1cc(C(=O)N2CCC(c3ccc(N)nn3)CC2)ncc1-c1ccc(OC2CCC2)nc1 [Compound 49, [4-(6-Amino-pyridazin-3-yl)-piperidin-1-yl]-(6′-cyclobutoxy-4-methoxy-[3,3′]bipyridinyl-6-yl)-methanone]	140
COc1cc(C(=O)N2CCN(c3ccc(N)nc3)[C@H](C)C2)ccc1-c1ccc(C(F)(F)F)cc1 [Compound 114, [(R)-4-(6-Amino-pyridin-3-yl)-3-methyl-piperazin-1-yl]-(2-methoxy-4′-trifluoromethyl-biphenyl-4-yl)-methanone]	67
COc1cc(C(=O)N2CCN(c3ccc(N)nc3)CC2)ncc1-c1ccc(C(F)(F)F)nc1 [Compound 67, [4-(6-Amino-pyridin-3-yl)-piperazin-1-yl]-(4-methoxy-6′-trifluoromethyl-[3,3′]bipyridinyl-6-yl)-methanone]	210
COc1cc(C(=O)N2CCN(c3cnc(N)cc3OC)CC2CC(F)F)ncc1-c1ccc(C(F)(F)F)cc1 (single isomer, unassigned) [Compound 109]	330
COc1cc(C(=O)N2CCC(c3ccc(N)nn3)CC2)ccc1-c1ccc(OCC2(C)CC2)nc1 [Compound 79, 6-[1-(3-Methoxy-4-{6-[(1-methylcyclopropyl)methoxy]pyridin-3-yl}benzoyl)piperidin-4-yl]pyridazin-3-amine]	120
COc1cc(C(=O)N2CCC(c3ccc(N)nn3)CC2)ncc1-c1ccc(C(F)(F)F)nc1 [Compound 42]	700
COc1cc(C(=O)N2CCC(c3ccc(N)nn3)CC2)ccc1-c1ccc(OCC2(CF)CC2)nc1 [Compound 80, [4-(6-Amino-pyridazin-3-yl)-piperidin-1-yl]-{4-[6-(1-fluoromethyl-cyclopropylmethoxy)-pyridin-3-yl]-3-methoxy-phenyl}-methanone]	130

The remaining compounds from weak to strong by IC50, led by results:

IC50 [nM]	Structure (SMILES)
4700	Cc1cc(C(=O)N2CCC(c3ccc(N)nn3)CC2)ccc1-c1ccc(C(F)(F)F)cc1 [Compound 63, [4-(6-Amino-pyridazin-3-yl)-piperidin-1-yl]-(2-methyl-4′-trifluoromethyl-biphenyl-4-yl)-methanone]
3400	Nc1ccc(C2CCN(C(=O)c3ccc(-c4ccc(F)cc4)cc3)CC2)nn1 [Compound 7, [4-(6-Amino-pyridazin-3-yl)-piperidin-1-yl]-(4′-fluoro-biphenyl-4-yl)-methanone]
2700	COc1cc(C(=O)N2CCC(c3ccc(N)nn3)CC2)ncc1-c1ccc(OCC2CC2)c(Cl)c1 [Compound 18]
440	COc1cc(C(=O)N2CCC(c3ccc(N)nn3)CC2)ncc1-c1ccc(OCC2CC2(F)F)nc1 (centres unmarked) [Compound 111, [4-(6-Amino-pyridazin-3-yl)-piperidin-1-yl]-[6′-(2,2-difluoro-cyclopropylmethoxy)-4-methoxy-[3,3′]bipyridinyl-6-yl]-methanone]
390	COc1cc(C(=O)N2CCC(c3ccc(N)nn3)CC2)ncc1-c1ccc(C2CC2)nc1 [Compound 43, [4-(6-Amino-pyridazin-3-yl)-piperidin-1-yl]-(6′-cyclopropyl-4-methoxy-[3,3′]bipyridinyl-6-yl)-methanone]
320	COc1cc(C(=O)N2CCN(c3cnc(N)cc3OC)C[C@@H]2CO)ncc1-c1ccccc1 [Compound 96, [(R)-4-(6-Amino-4-methoxy-pyridin-3-yl)-2-hydroxymethyl-piperazin-1-yl]-(4-methoxy-5-phenyl-pyridin-2-yl)-methanone]
160	COc1cc(C(=O)N2CCC(c3ccc(N)nn3)CC2)ccc1-c1ccc(OCC2CC2(C)C)nc1 (centres unmarked) [Compound 77, [4-(6-Amino-pyridazin-3-yl)-piperidin-1-yl]-{4-[6-(2,2-dimethyl-cyclopropylmethoxy)-pyridin-3-yl]-3-methoxy-phenyl}-methanone]
130	COc1cc(C(=O)N2CCC(c3ccc(N)nn3)CC2)ncc1-c1ccc(OC2CC2)cc1 [Compound 41, [4-(6-Amino-pyridazin-3-yl)-piperidin-1-yl]-[5-(4-cyclopropoxy-phenyl)-4-methoxy-pyridin-2-yl]-methanone]
27	COc1cc(C(=O)N2CCN(c3cnc(N)cc3OC)CC2)ncc1-c1ccc(C(F)(F)F)cc1 [Compound 103, [4-(6-Amino-4-methoxy-pyridin-3-yl)-piperazin-1-yl]-[4-methoxy-5-(4-trifluoromethyl-phenyl)-pyridin-2-yl]-methanone]
27	COc1cc(C(=O)N2CCC(c3ccc(N)nc3)CC2)ncc1-c1ccc(F)cc1 [Compound 72, (6-Amino-3′,4′,5′,6′-tetrahydro-2′H-[3,4′]bipyridinyl-1′-yl)-[5-(4-fluoro-phenyl)-4-methoxy-pyridin-2-yl]methanone]
